Assay results taken from ChEMBL document CHEMBL1828497, “Novel indole and azaindole (pyrrolopyridine) cannabinoid (CB) receptor agonists: design, synthesis, structure-activity relationships, physicochemical properties and biological activity” (Eur J Med Chem, 2011).
Converted amounts (≈) assume the structure as drawn.

Assays:
Cannabinoid receptor 2 [1] = biological target: T1, Cannabinoid receptor 2 (Homo sapiens, UniProt P34972); assay: Displacement of [3H]-CP55940 from human CB2 receptor expressed in CHO cells by liquid scintillation counting; assay type: cell-based
T1 sequence (P34972 whole entry): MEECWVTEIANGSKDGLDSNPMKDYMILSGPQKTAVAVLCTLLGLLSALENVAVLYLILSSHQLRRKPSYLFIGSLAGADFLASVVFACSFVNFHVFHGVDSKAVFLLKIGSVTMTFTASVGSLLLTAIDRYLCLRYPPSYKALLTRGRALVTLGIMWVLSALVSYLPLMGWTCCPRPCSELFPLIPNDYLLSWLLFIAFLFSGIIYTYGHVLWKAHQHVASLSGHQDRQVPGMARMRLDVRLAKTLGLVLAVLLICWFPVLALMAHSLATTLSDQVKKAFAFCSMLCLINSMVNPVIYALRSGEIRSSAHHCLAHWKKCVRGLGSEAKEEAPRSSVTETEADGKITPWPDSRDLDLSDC

Cannabinoid receptor 1 [2] = biological target: T2, Cannabinoid receptor 1 (Homo sapiens, UniProt P21554); assay: Displacement of [3H]-CP55940 from human CB1 receptor expressed in CHO cells by liquid scintillation counting; assay type: cell-based
T2 sequence (P21554 whole entry): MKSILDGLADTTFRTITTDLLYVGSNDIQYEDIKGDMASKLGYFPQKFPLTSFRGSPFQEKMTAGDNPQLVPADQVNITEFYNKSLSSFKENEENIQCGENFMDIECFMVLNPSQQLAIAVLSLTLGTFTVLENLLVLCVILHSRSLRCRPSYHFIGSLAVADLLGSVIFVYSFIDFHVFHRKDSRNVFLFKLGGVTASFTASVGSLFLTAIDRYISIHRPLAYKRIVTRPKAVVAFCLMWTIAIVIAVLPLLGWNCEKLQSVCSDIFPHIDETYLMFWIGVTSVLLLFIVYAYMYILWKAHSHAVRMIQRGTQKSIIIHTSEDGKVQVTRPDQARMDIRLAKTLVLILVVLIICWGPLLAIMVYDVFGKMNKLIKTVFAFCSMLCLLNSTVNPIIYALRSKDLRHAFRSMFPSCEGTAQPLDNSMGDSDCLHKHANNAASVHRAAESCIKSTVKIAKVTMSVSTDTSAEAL

Homo sapiens = species on record: Homo sapiens; assay: Selectivity ratio of Ki for human CB2 receptor to Ki for human CB1 receptor
Cannabinoid receptor 1 [3] = biological target: T2, Cannabinoid receptor 1; assay: Agonist activity at human CB1 receptor expressed in CHO cells assessed as stimulation of [3H]-arachidonic acid release; assay type: functional, cell-based
[4] = Lipophilicity, log D of the compound at pH 7.4; conditions: buffer
[5] = Dissociation constant, pKa of the compound by fast UV-metric method; assay type: physicochemical
[6] = Apparent permeability from apical to basolateral side in human Caco2 cells by LC-MS/MS analysis; conditions: Caco-2
physchem [7] = conditions: phosphate buffer, pH 7.4
Description: Thermodynamic solubility of the compound in phosphate buffer at pH 7.4 after 24 hrs by HPLC analysis

physchem [8] = conditions: 0.01 M phosphate buffered saline, pH 7.4
physchem [9] = conditions: 0.01 M phosphate buffered saline, pH 7.4; remark: listed apart in the source
Cannabinoid receptor 2 [10] = biological target: T1, Cannabinoid receptor 2; assay: Agonist activity at human CB2 receptor expressed in CHO cells assessed as inhibition of forskolin-stimulated cAMP accumulation after 20 mins; assay type: functional, cell-based
[11] = biological target: Cannabinoid receptor 1 (Rattus norvegicus) (UniProt P20272); assay: (§1) Activation of CB1 receptor in Wistar rat prelimbic prefrontal cortex assessed as reduction of field excitatory postsynaptic potential amplitude after 20 mins; assay type: tissue-based
Cannabinoid receptor 1 (Rattus norvegicus), sequence (P20272 whole entry): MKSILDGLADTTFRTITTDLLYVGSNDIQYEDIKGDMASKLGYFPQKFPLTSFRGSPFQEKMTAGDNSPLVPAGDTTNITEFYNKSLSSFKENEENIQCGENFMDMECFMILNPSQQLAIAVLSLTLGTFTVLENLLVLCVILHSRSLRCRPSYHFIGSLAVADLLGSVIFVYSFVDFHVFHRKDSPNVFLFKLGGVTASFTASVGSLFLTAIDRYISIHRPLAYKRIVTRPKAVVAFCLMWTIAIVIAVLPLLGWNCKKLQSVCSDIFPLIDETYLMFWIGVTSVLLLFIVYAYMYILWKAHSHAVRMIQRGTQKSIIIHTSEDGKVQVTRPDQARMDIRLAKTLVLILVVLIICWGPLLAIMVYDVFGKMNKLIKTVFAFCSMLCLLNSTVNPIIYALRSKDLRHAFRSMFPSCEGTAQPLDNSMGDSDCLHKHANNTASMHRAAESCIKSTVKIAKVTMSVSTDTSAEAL

Cannabinoid receptor 1 [12] = biological target: Cannabinoid receptor 1 (Rattus norvegicus, UniProt P20272); assay: as §1; assay type: tissue-based
Cannabinoid receptor 1 (Rattus norvegicus, UniProt P20272), sequence (P20272 whole entry): as above

[13] = biological target: Cannabinoid receptor 1 (Rattus norvegicus) (UniProt P20272); assay: Activation of CB1 receptor in Wistar rat prelimbic prefrontal cortex assessed as reduction of field excitatory postsynaptic potential amplitude after 20 mins relative to baseline; assay type: tissue-based
physchem [14] = conditions: phosphate buffer, pH 4
Description: Thermodynamic solubility of the compound in phosphate buffer at pH 4 after 24 hrs by HPLC analysis

Compound | Ki (Cannabinoid receptor 2 [1]) [nM] | Ki (Cannabinoid receptor 1 [2]) [nM] | Ratio Ki (Homo sapiens) | EC50 (Cannabinoid receptor 1 [3]) [nM] | logD [4] | pKa [5] | Papp A→B [6] [×10⁻⁶ cm/s] | solubility thermodynamic at 24 h (physchem [7]) [µM] | solubility kinetic (physchem [8]) [µM] | solubility kinetic (physchem [9]) [µM] | EC50 (Cannabinoid receptor 2 [10]) [nM] | inhibition [11] | IC50 (Cannabinoid receptor 1 [12]) [nM] | Emax [13] [%] | solubility thermodynamic at 24 h (physchem [14]) [µM]
CCCCCn1cc(C(=O)c2cccc3ccccc23)c2ccncc21 | 501 | 158 | 3 | 100 | 4.72 | 5.83 | 13 | 4 (≈ 1.37 µg/mL) | 3 (≈ 1.03 µg/mL) | 10 (≈ 3.42 µg/mL) | – | – | – | – | –
CCCCCn1cc(C(=O)Nc2cccc3ccccc23)c2ccccc21 | 100 | 1.26 | 79 | 10 | > 5 | – | – | < 1 | – | – | 7.94 | Dose-dependent effect | 450 | 78.1 | < 1
COCCn1cc(C(=O)Nc2cccc3ccccc23)c2ccccc21 | 251 | > 1000 | < 0.3 | – | 2.94 | – | 27 | 3 (≈ 1.03 µg/mL) | 30 (≈ 10.3 µg/mL) | 100 (≈ 34.4 µg/mL) | 6.31 | – | – | – | 3 (≈ 1.03 µg/mL)
COCCn1cc(C(=O)c2ccc(-c3ccccc3)cc2)c2ccccc21 | > 1000 | > 1000 | – | – | 4.5 | – | – | < 1 | – | – | – | – | – | – | < 1
COCCn1cc(C(=O)c2cccc3ccccc23)c2cccnc21 | 200 | 501 | 0.4 | > 1000 | 3.57 | < 2 | 26 | 3 (≈ 0.991 µg/mL) | 10 (≈ 3.3 µg/mL) | 65 (≈ 21.5 µg/mL) | > 1000 | – | – | – | 3 (≈ 0.991 µg/mL)
Cc1c(C(=O)c2cccc3ccccc23)c2cccc3c2n1[C@H](CN1CCOCC1)CO3 [WIN-552122] | – | – | – | – | 4.08 | 4.14 | 12.1 | 5 (≈ 2.13 µg/mL) | 3 (≈ 1.28 µg/mL) | 20 (≈ 8.53 µg/mL) | – | – | – | – | 8 (≈ 3.41 µg/mL)
CCCCCn1cc(C(=O)c2ccccc2-c2ccccc2)c2ccccc21 | 7.94 | 6.31 | 1 | – | > 5 | – | – | < 1 | – | – | – | – | – | – | –
CCCCCn1cc(C(=O)c2cccc3ccccc23)c2ccccc21 | 6.31 | 2 | 3 | 5.01 | > 5 | – | – | < 1 | – | – | 5.01 | Dose-dependent effect | 280 | 73.5 | < 1
CCCCCn1cc(C(=O)c2ccc(-c3ccccc3)cc2)c2ccccc21 | 39.8 | 31.6 | 1 | – | > 5 | – | – | < 1 | – | – | – | – | – | – | < 1
CCCCCn1cc(C(=O)c2cccc3ccccc23)c2cnccc21 | 50.1 | 316 | – | 50.1 | – | 6.49 | – | – | – | – | – | – | – | – | –
COCCn1cc(C(=O)c2cccc(-c3ccccc3)c2)c2ccccc21 | > 1000 | 251 | > 4 | – | 4.4 | – | – | < 1 | – | – | – | – | – | – | < 1
COCCn1cc(C(=O)c2cccc3ccccc23)c2ccncc21 | 25.1 | > 1000 | < 0.03 | > 1000 | 3.13 | 5.8 | – | – | – | – | – | – | – | – | –
CCCCCn1cc(C(=O)c2cccc3ccccc23)c2cccnc21 | 50.1 | 12.6 | 4 | 31.6 | > 5 | < 2 | – | 1 (≈ 0.342 µg/mL) | – | – | 158 | Dose-dependent effect | 520 | 67.1 | 1 (≈ 0.342 µg/mL)
CCCCCn1cc(C(=O)Nc2ccc3ccccc3c2)c2ccccc21 | 631 | 63.1 | 10 | > 1000 | > 5 | – | – | < 1 | – | – | 5010 | – | – | – | < 1
CCCCCn1cc(C(=O)c2cccc(-c3ccccc3)c2)c2ccccc21 | 63.1 | 7.94 | 9 | – | > 5 | – | – | < 1 | – | – | – | – | – | – | –
CCCCCCC(C)(C)c1ccc([C@@H]2C[C@H](O)CC[C@H]2CCCO)c(O)c1 [CP-55940] | – | – | – | – | > 5 | 11.2 | 5.7 | 2 (≈ 0.753 µg/mL) | 30 (≈ 11.3 µg/mL) | 100 (≈ 37.7 µg/mL) | – | – | – | – | 2 (≈ 0.753 µg/mL)
CCCCCCC(C)(C)c1cc(O)c2c(c1)OC(C)(C)C1CCC(=O)CC21 (stereo not given) [NABILONE] | 6.31 | 3.98 | 1.7 | – | > 5 | 10.6 | – | < 1 | – | – | 15.8 | – | – | – | < 1
COCCn1cc(C(=O)Nc2ccc3ccccc3c2)c2ccccc21 | 316 | > 1000 | < 0.3 | – | 3.69 | – | – | < 1 | – | – | – | – | – | – | < 1
COCCn1cc(C(=O)c2ccccc2-c2ccccc2)c2ccccc21 | 631 | 251 | 3 | – | 3.31 | – | – | < 1 | – | – | – | – | – | – | < 1
